The text below walks through data of patent US4127722A, “Benzhydrylsulphinyl derivatives” (Laboratoire L. Lafon, priority 1975, dated 1978).

The subject of data set [1] is passes which entail pain. The settings on record: mentioned for comparison; cited from earlier work.
The conditions of data set [2]: at doses close to the toxic dose; mentioned for comparison; cited from earlier work.
Data set [3] has as its system mice. The data set is described as follows: Toxicity, intraperitoneal administration, mice. The data set is classed as in vivo. Particulars: intraperitoneal administration.
The subject of the next data set is spontaneous motility. The experiment in a line: Spontaneous motility (actimetry). The settings on record: mice. The data set is classed as in vivo, mice. How it is done:
CRL 40,028 increases the motor activity of the animals from a dose of 16 mg/kg onwards. As this effect is representative of the activity of CRL 40,028, attempts have been made to obtain its kinetics more precisely. […]

The subject of another data set is residual motility. The data set is described as follows: Residual motility. In kind it is in vivo, mice.
Data set [4] deals with stereotype behaviour induced by amphetamine. The data set is described as follows: Interaction with amphetamine. The settings on record: for duration of the stereotypies brought about by amphetamine: rat, in vivo; for boosting of stereotypies produced by amphetamine-type compounds: in words. In kind it is in vivo, rats. How it is done:
Amphetamine (2 mg/kg, given intraperitoneally) is injected 30 minutes after the administration of CRL 40,028 (6 rats/dose).

For data set [5], the system named is hypothermia and ptosis produced by reserpine. The data set is described as follows: Interaction with reserpine. The data set is classed as in vivo, mice. How it is done:
Batches of 6 mice are given an intraperitoneal injection of reserpine (2.5 mg/kg) 4 hours before the administration of CRL 40,028.

The subject of data set [6] is hypothermia, trembling and peripheral cholinergic symptoms brought about by oxotremorine. The data set is described as follows: Interaction with oxotremorine. In kind it is in vivo, mice. Particulars: for effect towards oxotremorine: in words. How it is done:
Mice (6 per dose) are given an intraperitoneal injection of 0.5 mg/kg of oxotremorine 30 minutes after the administration of CRL 40,028.

Another data set concerns central nervous system. The data set is described as follows: Pharmacological tests: action on the central nervous system, overall profile. Particulars: for action on the central nervous system: in words. The data set is classed as in vivo. As to the method: The results of the pharmacological tests which were carried out have been summarised below.
Data set [7] in a line: General behaviour / psychopharmacological spectrum (species not stated). In kind it is in vivo. Particulars: for mydriatic effect: in words.
Data set [8] has as its system mice. The data set is described as follows: General behaviour, mice. In kind it is in vivo. The settings on record: mice.
Data set [9] concerns convulsive effects of the electric shock. The data set is described as follows: Electric shock. In kind it is in vivo, mice. How it is done: (§1) The test is carried out on batches of 20 mice, 30 minutes after the administration of CRL 40,028.
For another data set, the system named is rats. The data set is described as follows: General behaviour, rats. The data set is classed as in vivo.
Another data set has as its system groups of mice. The data set is described as follows: Group toxicity. The settings on record: Table IV, graded symbols.
The test system of data set [10] is passes which entail pain. The experiment in a line: Four plate test. The data set is classed as in vivo, mice. Particulars: in words. As to the method: as §1
Setting [11] is: at medium doses, very moderate intensity.

Regarding `CN(C)CCC=C1c2ccccc2CCc2ccccc21` [amitriptyline], the “effect in the four plate test (comparison drug)” value (from here on “effect … (comparison drug)”) in the data set with passes which entail pain [1] is “a certain effect in the four plate test”. Also, the “sedation (comparison drug)” value in data set [2] was “not”.

In the case of `CN(C)CCCN1c2ccccc2CCc2ccccc21` [imipramine], the “effect … (comparison drug)” value in the data set on passes which entail pain [1] is listed as “a certain effect in the four plate test”.

Turning to `Cl.[O-][S+](CCN1CCCCC1)C(c1ccccc1)c1ccccc1` (stereo not shown) [CRL 40,222, N-[2-(Benzhydrylsulphinyl)-ethyl]-piperidine hydrochloride], the LD-O result in the data set with mice [3] is “greater than 128 mg/kg”. For the same compound, the spontaneous motility entry in the data set on spontaneous motility (only at a low dose of 1 mg/kg) is reported as “an increase in the spontaneous motility”. For the same compound, the residual motility entry with residual motility (mice, 8 mg/kg) is reported as “a stimulation of the residual motility”. Moreover, in data set [4], the “duration of the stereotypies brought about by amphetamine” value is “an increase in the duration of the stereotypies”. Also, the anti-reserpine effect result in data set [5] (in words) is recorded as “absence of an anti-reserpine effect”. In addition, the effect towards oxotremorine entry in [6] was “a moderate action towards oxotremorine”. Also, the “action on the central nervous system” value with central nervous system is reported as “acts on the central nervous system”.

Take `O=C(CCC[S+]([O-])C(c1ccccc1)c1ccccc1)NO` (stereo not shown) [CRL 40,278, 4-(Benzhydrylsulphinyl)-butyrohydroxamic acid]: in the data set with mice [3], the LD-O entry is “greater than 1,024 mg/kg”. Besides, the “action on the central nervous system” value in the data set on central nervous system is “acts on the central nervous system”.

Consider `Cl.NC(C[S+]([O-])C(c1ccccc1)c1ccccc1)=NO` (stereo not shown) [CRL 40,048, Benzhydrylsulphinylacetamidoxime hydrochloride], for which the “boosting of stereotypies produced by amphetamine-type compounds” value in data set [4] is “boosts stereotypies produced by amphetamine-type compounds”. Also, in data set [6], the effect towards oxotremorine entry is “antagonist action on oxotremorine”. For the same compound, in data set [7], the mydriatic effect result was “absence of a mydriatic effect”. Further, in the data set with mice [8], the “hyper-reactivity to the touch” value is “hyper-reactivity to the touch”. Also, the “action on the central nervous system” value in the data set on central nervous system is given as “acts only on the central nervous system”. This compound also showed a solubility in “Solubility in water” of 100 mg/mL.

In the case of `Cl.NC(CCC[S+]([O-])C(c1ccccc1)c1ccccc1)=NO` (stereo not shown) [CRL 40,277, 4-(Benzhydrylsulphinyl)-butyramidoxime hydrochloride], the LD-O entry in the data set on mice [3] was “greater than 512 mg/kg”. In addition, the residual hypermotility result in the data set on residual motility (setting [11]) was “inconstant residual hypermotility”. Further, the “boosting of the effect of amphetamine” value in [4] (setting [11]) is on record as “boosting of the effect of amphetamine”. The “hypothermic effects of reserpine” value in data set [5] (at high doses) is reported as “aggravation of the hypothermic effects of reserpine”. In data set [6] (at high doses), the “hypothermic effects of oxotremorine” value is recorded as “aggravation of the hypothermic effects”. Further, in data set [9] (at high doses), the “lethal effects of the electric shock” value is “an aggravation of the lethal effects of the electric shock”. Besides, in [7] (at high doses), the hypomotility result is recorded as “hypomotility” and the hypothermia entry is on record as “hypothermia”. Besides, the hyper-reactivity result in data set [7] (setting [11]) was “hyper-reactivity”. Further, the “action on the central nervous system” value with central nervous system is on record as “acts on the central nervous system”.

`CNCCC=C1c2ccccc2CCc2ccccc21` [nortriptyline]: the “effect … (comparison drug)” value with passes which entail pain [1] is listed as “not”. For the same compound, the “sedation (comparison drug)” value in data set [2] is “a sedation at doses close to the toxic dose”.

As for `Cl.NC(CC[S+]([O-])C(c1ccccc1)c1ccccc1)=NO` (stereo not shown) [CRL 40,261, 3-(Benzhydrylsulphinyl)-propionamidoxime hydrochloride], the LD-O entry in the data set on mice [3] is recorded as “greater than 256 mg/kg”. The spontaneous motility result with spontaneous motility (2 mg/kg, 8 mg/kg and 32 mg/kg) is “an increase in the spontaneous motility”. Also, the “duration of the stereotypies brought about by amphetamine” value in data set [4] was “an increase in the duration of the stereotypies”. Further, in [5] (in words), the “hypothermia due to reserpine” value is on record as “an increase in the hypothermia due to reserpine” and the “palpebral ptosis induced by reserpine” value is on record as “without alteration of the palpebral ptosis”. Moreover, the effect towards oxotremorine entry in data set [6] is given as “moderate effect towards oxotremorine”.

Turning to `O=C(CC[S+]([O-])C(c1ccccc1)c1ccccc1)NO` (stereo not shown) [CRL 40,260, 3-(Benzhydrylsulphinyl)-propionohydroxamic acid], in the data set with mice [3], the LD-O entry is listed as “greater than 1,024 mg/kg” and the toxicity in words result is on record as “low toxicity”. Further, in the data set with spontaneous motility, the spontaneous motility result was “a reduction in the spontaneous motility”. Besides, in the data set with mice [8], the hyper-reactivity entry is recorded as “a hyper-reactivity” and the “sedation, with hypomotility” value is listed as “a sedation, with hypomotility”. In addition, in the data set on rats, the hyper-reactivity entry is given as “a hyper-reactivity” and the “sedation, with hypomotility” value is “a sedation, with hypomotility”.

On to `Cn1c(=O)c2c(ncn2C)n(C)c1=O` [Caffeine, reference compound], for which the “Anti-reserpine action (ptosis)” value in [5] (Table IV, graded symbols) is given as 0. Moreover, in [6] (Table IV, graded symbols), the “Anti-oxotremorine action (peripheral)” value is recorded as 0 and the “Anti-oxotremorine action (trembling)” value stood at 0. In the data set with groups of mice, this compound displayed a Group toxicity of 0.

With `Cl.[O-][S+](CCN1CCOCC1)C(c1ccccc1)c1ccccc1` (stereo not shown) [CRL 40,221, N-[2-(Benzhydrylsulphinyl)-ethyl]-morpholine hydrochloride], the LD-O entry with mice [3] is “greater than 512 mg/kg”. Further, the “motor activity in mice accustomed to their chamber” value in the data set on residual motility (mice) was “a resumption of motor activity”. The “boosting of stereotypies produced by amphetamine-type compounds” value in data set [4] is on record as “a (metabolic) boosting of the stereotypies”. Besides, in data set [5] (in words), the anti-reserpine effect entry was “an anti-reserpine effect”. Further, the effect towards oxotremorine result in [6] is given as “an anti-oxotremorine effect”. Further, the “effect in the four plate test” value in the data set on passes which entail pain [10] is on record as “a certain effect in the four plate test”. Further, the “protection against convulsions produced by electric shock” value in data set [9] (in words) was “a protection against convulsions”. The sedation entry in data set [7] (at doses close to the toxic dose) was “a sedation at doses close to the toxic dose”. Also, in data set [7] (at high doses), the hypothermia entry was “hypothermia at high doses”. For the same compound, the mydriatic effect result in [7] is “a considerable mydriasis”. The psychopharmacological spectrum entry in the data set with central nervous system (comparison with tricyclic anti-depressants) was “close to that of tricyclic anti-depressants”.
